US12252481B2, “Anti-viral compounds” (Aligos Therapeutics, Inc., priority 2021, dated 2025)
pEC50, pIC50: −log10 of the molar value.

Experiments:
[1] = target: T1, human cathepsin L (Homo sapiens, UniProt P07711); experiment: Cathepsin L assay (Z-FR-AMC fluorescence); format: biochemical; details: 10 pM human cathepsin L, 30 mins preincubation, Z-FR-AMC 2 μM
T1 construct: purchased R&D Systems
Summary of the method: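 IC50 values were taken from four-parameter fits of fluorescence read at 355/460 nm every 2 minutes for 30 minutes. The reaction started when 2 μM Z-FR-AMC was added. Before that, 10 pM human cathepsin L had been preincubated with inhibitor for 30 minutes.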

[2] = system: SARS-CoV-2-GHB-03021/2020; format: cell-based; details: read-out: VeroE6 + CP (EC50)
[3] = target: T2, SARS-Cov-2 3CLpro (Severe acute respiratory syndrome coronavirus 2, UniProt P0DTD1); experiment: biochemical; details: 3CLpro, 30 mins preincubation, SAMDI-MS; read-out: SARS-Cov-2 IC50 (class)
T2 construct: 3CLpro and HRV3C was added using a Multidrop Combi

[4] = system: human beta-coronavirus OC43; experiment: OC43 coronavirus antiviral assay in HeLa cells (cytopathic effect, cell-titer-glo); format: cell-based; details: Betacoronavirus 1, OC43, HeLa, 144 h, 6 days at 33° C., read-out: EC50 (class)
[5] = system: B.1.1.7 lineage SARS-CoV-2; experiment: microbe, parasite or virus in culture; format: cell-based; details: Severe acute respiratory syndrome coronavirus 2, 96 h; read-out: A549-dual_ACE2_TMPRSS2 (EC50)
[6] = target: T3, HRV3C (Human rhinovirus 14, UniProt P03303); experiment: biochemical; parameters: species or system HRV; details: HRV3C, 30 mins preincubation, SAMDI-MS; read-out: HRV IC50 (bound)
T3 construct: 3CLpro and HRV3C was added using a Multidrop Combi
T3 sequence (P03303 1538-1719): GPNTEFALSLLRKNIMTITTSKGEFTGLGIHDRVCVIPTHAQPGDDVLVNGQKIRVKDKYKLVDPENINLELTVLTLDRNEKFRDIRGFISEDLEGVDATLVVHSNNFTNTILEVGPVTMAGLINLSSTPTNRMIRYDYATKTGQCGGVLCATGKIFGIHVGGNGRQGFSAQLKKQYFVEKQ

T1 sequence (P07711 114-333): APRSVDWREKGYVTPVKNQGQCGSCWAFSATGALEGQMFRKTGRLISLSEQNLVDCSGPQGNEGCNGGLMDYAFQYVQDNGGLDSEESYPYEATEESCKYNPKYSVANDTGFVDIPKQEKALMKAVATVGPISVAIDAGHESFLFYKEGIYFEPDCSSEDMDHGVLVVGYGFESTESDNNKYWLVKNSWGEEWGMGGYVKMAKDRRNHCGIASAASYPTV

Row | SMILES | pIC50 [1] | pEC50 [2] | pIC50 [3] | pEC50 [4] | pEC50 [5] | pIC50 [6]
1 | C#CC(C)(C)[C@H](NC(=O)C(F)(F)F)C(=O)N1C[C@@H]2[C@@H]3CC[C@@H](C3)[C@@H]2[C@H]1C(=O)N[C@H](C#N)C[C@@H]1CCNC1=O [Example 13, (1S,2S,3S,6R,7R)—N-[(1S)-1-cyano-2-[(3S)-2-oxopyrrolidin-3-yl]ethyl]-4-[(2S)-3,3-dimethyl-2-(2,2,2-trifluoroacetamido)pent-4-ynoyl]-4-azatricyclo[5.2.1.0^{2,6}]decane-3-carboxamide] | ≤ 5.00 | > 7.00 | 6.70 to 7.70 | 6.00 to 7.00 | > 7.00 | < 5.00
2 | CC(C)(C)[C@H](NC(=O)C(F)(F)F)C(=O)N1C[C@H]2[C@@H]([C@H]1C(=O)N[C@H](C#N)C[C@@H]1CC3(CC3)NC1=O)[C@H]1C=C[C@@H]2C1 [Example 14, (1S,3aR,4S,7R,7aS)-N-((S)-1-cyano-2-((R)-5-oxo-4-azaspiro[2.4]heptan-6-yl)ethyl)-2-((S)-3,3-dimethyl-2-(2,2,2-trifluoroacetamido)butanoyl)-2,3,3a,4,7,7a-hexahydro-1H-4,7-methanoisoindole-1-carboxamide] | ≤ 5.00 | > 7.00 | > 7.70 | > 7.00 | > 7.00 | < 5.00
3 | CC(C)(C)[C@H](NC(=O)C(F)(F)F)C(=O)N1C[C@H]2[C@@H]([C@H]1C(=O)N[C@H](C#N)C[C@@H]1CCCNC1=O)[C@H]1C=C[C@@H]2C1 [Example 16, (1S,3aR,4S,7R,7aS)-N-((S)-1-cyano-2-((S)-2-oxopiperidin-3-yl)ethyl)-2-((S)-3,3-dimethyl-2-(2,2,2-trifluoroacetamido)butanoyl)-2,3,3a,4,7,7a-hexahydro-1H-4,7-methanoisoindole-1-carboxamide] | ≤ 5.00 | > 7.00 | > 7.70 | > 7.00 | > 7.00 | < 5.00
4 | CC(C)(C)[C@H](NC(=O)C(F)(F)F)C(=O)N1C[C@H]2[C@@H]([C@H]1C(=O)N[C@H](C#N)C[C@@H]1CCNC1=O)[C@H]1CC[C@@H]2C12CC2 [Example 18, (1′R,2′S,3′S,6′R,7′S)—N-[(1S)-1-cyano-2-[(3S)-2-oxopyrrolidin-3-yl]ethyl]-4′-[(2S)-3,3-dimethyl-2-(2,2,2-trifluoroacetamido)butanoyl]-4′-azaspiro[cyclopropane-1,10′-tricyclo[5.2.1.0^{2,6}]decane]-3′-carboxamide] | ≤ 5.00 | > 7.00 | > 7.70 | > 7.00 | 6.00 to 7.00 | < 5.00
5 | CC(C)(C)[C@H](NC(=O)c1ccco1)C(=O)N1C[C@H]2[C@@H]([C@H]1C(=O)N[C@H](C#N)C[C@@H]1CCNC1=O)[C@H]1C=C[C@@H]2C1 [Example 19, (1S,3aR,4S,7R,7aS)-N-((S)-1-cyano-2-((S)-2-oxopyrrolidin-3-yl)ethyl)-2-((S)-2-(furan-2-carboxamido)-3,3-dimethylbutanoyl)-2,3,3a,4,7,7a-hexahydro-1H-4,7-methanoisoindole-1-carboxamide] | ≤ 5.00 | 6.00 to 7.00 | 6.70 to 7.70 | > 7.00 | 6.00 to 7.00 | < 5.00
6 | CC(C)(C)[C@H](NC(=O)[C@H]1CCCO1)C(=O)N1C[C@H]2[C@@H]([C@H]1C(=O)N[C@H](C#N)C[C@@H]1CCNC1=O)[C@H]1C=C[C@@H]2C1 [Example 22, (1S,3aR,4S,7R,7aS)-N-((S)-1-cyano-2-((S)-2-oxopyrrolidin-3-yl)ethyl)-2-((S)-3,3-dimethyl-2-((R)-tetrahydrofuran-2-carboxamido)butanoyl)-2,3,3a,4,7,7a-hexahydro-1H-4,7-methanoisoindole-1-carboxamide] | ≤ 5.00 | 5.00 to 6.00 | 5.70 to 6.70 | 5.00 to 6.00 | 5.00 to 6.00 | < 5.00
7 | CC(C)(C)[C@H](NC(=O)C(F)(F)F)C(=O)N1C[C@@H]2[C@H]3C[C@@H]([C@@H]2[C@H]1C(=O)N[C@H](C#N)C[C@@H]1CCNC1=O)[C@H]1[C@@H]3C1(F)F [Example 23, (1S,2S,3S,6R,7R,8R,10S)—N-[(1S)-1-cyano-2-[(3S)-2-oxopyrrolidin-3-yl]ethyl]-4-[(2S)-3,3-dimethyl-2-(2,2,2-trifluoroacetamido)butanoyl]-9,9-difluoro-4-azatetracyclo[5.3.1.0^{2,6}0.0^{8,10}]undecane-3-carboxamide] | ≤ 5.00 | 6.00 to 7.00 | 6.70 to 7.70 | 5.00 to 6.00 | 6.00 to 7.00 | < 5.00
8 | CC1(C(NC(=O)C(F)(F)F)C(=O)N2C[C@H]3[C@@H]([C@H]2C(=O)N[C@H](C#N)C[C@@H]2CCNC2=O)[C@H]2C=C[C@@H]3C2)CC1 (stereo partly drawn) [Example 24, (1R,2S,3S,6R,7S)—N-[(1S)-1-cyano-2-[(3S)-2-oxopyrrolidin-3-yl]ethyl]-4-[2-(1-methylcyclopropyl)-2-(2,2,2-trifluoroacetamido)acetyl]-4-azatricyclo[5.2.1.0^{2,6}]dec-8-ene-3-carboxamide] | ≤ 5.00 | 6.00 to 7.00 | > 7.70 | > 7.00 | 6.00 to 7.00 | < 5.00
9 | CC(C)(C)[C@H](NC(=O)C(F)(F)F)C(=O)N1C[C@H]2[C@@H]([C@H]1C(=O)NC(C#N)C[C@]13CC[C@H](C1)NC3=O)[C@H]1C=C[C@@H]2C1 (stereo partly drawn) [Example 26, (1S,3aR,4S,7R,7aS)—N-(1-cyano-2-((1R,4S)-3-oxo-2-azabicyclo[2.2.1]heptan-4-yl)ethyl)-2-((S)-3,3-dimethyl-2-(2,2,2-trifluoroacetamido)butanoyl)-2,3,3a,4,7,7a-hexahydro-1H-4,7-methanoisoindole-1-carboxamide] | ≤ 5.00 | 6.00 to 7.00 | 6.70 to 7.70 | 6.00 to 7.00 | 6.00 to 7.00 | < 5.00
10 | N#C[C@H](C[C@@H]1CCNC1=O)NC(=O)[C@@H]1[C@@H]2[C@H](CN1C(=O)[C@@H](NC(=O)C(F)(F)F)C13CC(C1)C3)[C@@H]1C=C[C@H]2C1 [Example 27, (1R,2S,3S,6R,7S)-4-[(2S)-2-{bicyclo[1.1.1]pentan-1-yl}-2-(2,2,2-trifluoroacetamido)acetyl]-N-[(1S)-1-cyano-2-[(3S)-2-oxopyrrolidin-3-yl]ethyl]-4-azatricyclo[5.2.1.0^{2,6}]dec-8-ene-3-carboxamide] | ≤ 5.00 | > 7.00 | > 7.70 | > 7.00 | 6.00 to 7.00 | < 5.00
11 | C=CC(C)(C)[C@H](NC(=O)C(F)(F)F)C(=O)N1C[C@H]2[C@@H]([C@H]1C(=O)N[C@H](C#N)C[C@@H]1CCNC1=O)[C@H]1C=C[C@@H]2C1 [Example 28, (1R,2S,3S,6R,7S)—N-[(1S)-1-cyano-2-[(3S)-2-oxopyrrolidin-3-yl]ethyl]-4-[(2S)-3,3-dimethyl-2-(2,2,2-trifluoroacetamido)pent-4-enoyl]-4-azatricyclo[5.2.1.0^{2,6}]dec-8-ene-3-carboxamide] | ≤ 5.00 | > 7.00 | > 7.70 | > 7.00 | > 7.00 | < 5.00
12 | CC(C)(C)[C@H](NC(=O)C1(F)CC1)C(=O)N1C[C@H]2[C@@H]([C@H]1C(=O)N[C@H](C#N)C[C@@H]1CCNC1=O)[C@H]1C=C[C@@H]2C1 [Example 30, (1R,2S,3S,6R,7S)—N-[(1S)-1-cyano-2-[(3S)-2-oxopyrrolidin-3-yl]ethyl]-4-[(2S)-2-[(1-fluorocyclopropyl)formamido]-3,3-dimethylbutanoyl]-4-azatricyclo[5.2.1.0^{2,6}]dec-8-ene-3-carboxamide] | ≤ 5.00 | > 7.00 | > 7.70 | > 7.00 | > 7.00 | < 5.00
13 | [2H][C@@H]1[C@H]([2H])[C@@H]2C[C@H]1[C@H]1[C@@H]2CN(C(=O)[C@@H](NC(=O)C(F)(F)F)C(C)(C)C)[C@@H]1C(=O)N[C@H](C#N)C[C@@H]1CCNC1=O [Example 32, (1S,3aR,4R,5S,6R,7S,7aS)-N-((S)-1-cyano-2-((S)-2-oxopyrrolidin-3-yl)ethyl)-2-((S)-3,3-dimethyl-2-(2,2,2-trifluoroacetamido)butanoyl)octahydro-1H-4,7-methanoisoindole-5,6-d^2-1-carboxamide] | ≤ 5.00 | > 7.00 | > 7.70 | > 7.00 | > 7.00 | < 5.00
14 | CC(C)(C)[C@H](NC(=O)[C@H]1CC1(F)F)C(=O)N1C[C@H]2[C@@H]([C@H]1C(=O)N[C@H](C#N)C[C@@H]1CCNC1=O)[C@H]1C=C[C@@H]2C1 [Example 33, (1S,3aR,4S,7R,7aS)-N-((S)-1-cyano-2-((S)-2-oxopyrrolidin-3-yl)ethyl)-2-((S)-2-((R)-2,2-difluorocyclopropane-1-carboxamido)-3,3-dimethylbutanoyl)-2,3,3a,4,7,7a-hexahydro-1H-4,7-methanoisoindole-1-carboxamide] | ≤ 5.00 | > 7.00 | > 7.70 | > 7.00 | 6.00 to 7.00 | < 5.00
